Experimental data from patent publication US11958869B2, “Ruthenium arene Schiff-base complexes and uses thereof” (CITY UNIVERSITY OF HONG KONG, priority 2021, dated 2024).
Read-outs that look alike come from different tables or passages of the source.

What was measured:
MDA-MB-231 mammospheres [1] = experiment: Viability of MDA-MB-231 mammospheres, Alamar Blue assay (Table 1); assay type: cell-based; details: read-out: IC50 (μM), growth of MDA-MB-231 mammospheres
MCF-7 = experiment: cells; assay type: cell-based; details: read-out: IC50 (μM) MCF-7 72 h
Experimental: (§1) Cells were seeded in 96-well plates and maintained for 14-16 hours, then were treated with dimethylsulfoxide (DMSO) or test compound at various concentrations (i.e., 0.312, 1.25, 5, 20 μM) for 72 hrs. The cells were then washed with phosphate buffer saline (PBS) twice, added a medium containing 3-(4,5-dimethylthiazol-2-yl)-2,5-diphenyltetrazolium bromide (MTT) at a final concentration of 0.5 mg/mL, and incubated for 4 hr at 37° C. in a humidified incubator containing 5% CO2 in air. Cells having functional succinate dehydrogenase of mitochondria would convert MTT to formazan. Then, the medium was replaced with 100 μL of DMSO for 30 min at room temperature, and the 96-well plate was read by an ELISA reader at 550 nm to get the absorbance density values. The IC50 values of death cell lines were calculated accordingly.
(§2) The Ru^TEN complexes of Example 1 were evaluated for their anti-proliferative properties in two breast cancer cell lines, namely, MCF-7 and MDA-MB-231 cells via MTT assay. […] MCF-7 is a chemotherapy-responsive breast cancer cell line of luminal subtype with high expression of estrogen receptor (ER), whereas MDA-MB-231 is a triple negative breast cancer (TNBC) or basal-like breast cancer cell ine. TNBC is defined as highly invasive cancer that lacks expression of ER, progesterone receptor (PR) and Her-2; it has one of the worst outcomes among all subtypes of breast cancers. The aggressive nature of TNBC may be related to the presence of breast cancer stem cells within the tumor; therefore, MDA-MB-231 cells are often used as a model of mammary cancer stem cells.
(§3) The cytotoxicity of Ru^TEN complexes of Example 1 was compared to that of cisplatin or oxaliplatin, which were known to induce their anticancer effects by the mode of action different from ER stress. Three CSC-selective organic compounds, salinomycin, etoposide and abamectin, were also used for comparison. Briefly, MCF-7 and MDA-MB-231 cells were respectively treated with increasing concentrations of compounds of interest for 24 or 72 hrs and then the cell viability was measured.

MDA-MB-231 = experiment: Anti-proliferative activity (MTT assay), MDA-MB-231; assay type: cell-based
Experimental: as §1, §2, §3

MDA-MB-231 mammospheres [2] = experiment: Cytotoxicity in MDA-MB-231 mammospheres (Table 2); assay type: cell-based; details: read-out: IC50 (μM) MDA-MB-231 mammospheres 72 h
MCF-7 mammospheres = experiment: Mammosphere formation assay, MCF-7; assay type: cell-based; details: for Number of MCF-7 mammospheres / Size (μm) of MCF-7 mammospheres: primary mammospheres grown 96 hr, incubated with compound 72 hrs, >50 μm analyzed
Experimental: (§4) Since the breast cancer stem cells formed a mass of colonies in the form of floating spheres without attaching to a surface of a plate, the size and number of the masses were observed by a mammosphere formation assay to determine a cancer-stem-cell-specific effect.
(§5) Single-cell suspension was cultured at a density of 1,000 to 15,000 cells/well using a MammoCult™ Human Medium kit (Stemcell Technologies Inc Vancouver, CA), and the spherical cells were counted and observed under a microscope.
(§6) The mammosphere assay is based on the concept that when cells proliferate in three-dimensional spheroid structures, only cancer cells with stem-like characteristics are able to evade anoikis.

MDA-MB-231 mammospheres [3] = experiment: Mammosphere formation assay, MDA-MB-231 primary; assay type: cell-based; details: for Number of MDA-MB-231 mammospheres / Size (μm) of MDA-MB-231 mammospheres: primary mammospheres grown 96 hr, incubated with compound 72 hrs, >50 μm analyzed; for decrease in number of MDA-MB-231 mammospheres / decrease in size of MDA-MB-231 mammospheres: versus control
Experimental: as §4, §5, §6

[4] = test system: MDA-MB-231 secondary mammospheres; experiment: Secondary mammosphere formation (self-renewal), MDA-MB-231; assay type: cell-based; details: for Number of MDA-MB-231 secondary mammospheres / Size (μm) of MDA-MB-231 secondary mammospheres: from drug-treated primary mammospheres, grown in drug-free conditions for 7 days; for propensity to form secondary mammospheres: single cells from drug-treated primary mammospheres, 7 days drug-free, FIG. 2
Experimental: To this purpose, drug-treated primary MDA-MB-231 mammospheres were dissociated into single cell suspensions and incubated for 7 days in ultralow attachment drug-free conditions.

MDA-MB-231 mammospheres [5] = experiment: Invasion / dispersion of spheroids into 3D collagen; assay type: cell-based; details: cells incubated with compound 72 hr, FIG. 4
Excerpt: CSCs are associated with highly invasive phenotype and it is believed that this subset of cancer cells gives rise to metastases. In order to monitor the dissemination of MCF-7 and MDA-MB-231 breast cancer spheroids, the spheroids were embedded into three-dimensional (3D) collagen scaffold using Aim Biotech 3D cell culture chips. Collagen with spheroids was introduced into the central region of the microfluidic system where it polymerized via thermal cross-linking. Cell culture media was introduced into media channels forcing spheroids to move through collagen towards the media.
Thus, whether Ru^TEN complexes and salinomycin affected the invasive properties of MDA-MB-231 spheroids was then investigated. To this purpose, MDA-MB-231 monolayer cells were incubated with compounds of interest (e.g., Ru^TEN complexes of Examplel or salinomycin) for 72 hr, then the delamination was allowed to proceed for over 28 hr. Results are depicted in FIG. 4.

[6] = test system: human hepatocellular carcinoma LM3 xenografts; experiment: Hepatocellular carcinoma LM3 xenograft model; assay type: in vivo, athymic NCr nude mice; details: all doses tested, FIG. 8
Experimental: (§7) Hepatocellular carcinoma LM3 cells (5×10^4 cells/20 μL) or breast cancer MDM-BA-231 cells (5×10^4 cells/20 μL) were implanted subcutaneously in the flanks of athymic NCr nude mice. A total of 40 male NCr nude mice (8 weeks or older weighing 20-24 g or more) were used for the tumor xenografts. The tested compounds (e.g., Ru^TEN 1, Ru^TEN 3, or salinomycin) were intraperitoneally administered at the dose of […] twice per week. Tumor volume was determined by image analysis. The mice in the control group received corresponding injection of 0.1% DMSO. For tumor-bearing NCr nude mice during the 4-weeks (or 28 days) experiment, the % body weight changes refer to: (the total weight on reading day/the total weight on day treatment started)×100. All mice were sacrificed at the end of the experiment (i.e., by the end of 28 days), and tissues including lung, liver, tumor, heart, brain, kidneys, spleen and colon were harvested, and checked for any sign of cancer metastasis.

[7] = test system: ALDHbright subpopulation of MDA-MB-231 cells; experiment: ALDEFLUOR assay (ALDH activity); assay type: cell-based; details: versus control, FIG. 3
Experimental: The cells were stained with […] bodipy-aminoacetaldehyde (BAAA), and then cultured at 37° C. for 45 minutes. An ALDH1 inhibitor, diethyl aminobenzaldehyde (DEAB), was used as the negative control. The stained cells were assayed using BD FACS Aria III. In this case, the positive fluorescent ALDH1-expressed cells (ALDH+) were detected in a green fluorescent channel (520 to 540 nm).
While CD44+/CD24−/low phenotype has often been associated with breast CSC/progenitor cell features, yet there is no correlation between the presence of CD44+/CD24−/low cells and clinical outcome and formation of distant metastases. It is the presence of aldehyde dehydrogenase (ALDH) bright cells which separates highly tumorigenic CD44+/CD24−/low/ALDHbright population from non-tumorigenic cells. Unlike CD44+/CD24−/low, ALDH is a predictor of metastasis and is associated with a poor clinical outcome. The main role of ALDH enzymes is the detoxification of aldehydes generated in various metabolic processes into carboxylic acids. However, several ALDH isoforms are involved in retinoic acid signaling and this particular function was linked to the “stemness” of CSCs. The functional activity of ALDHs can be accurately determined by ascertaining the cellular conversion of […] (BAAA) into a fluorescent molecule BODIPY-aminoacetate (BAA). ATP-binding cassette (ABC)-transporter inhibitors in the assay buffer prevent the efflux of BAA from the cells, resulting in the accumulation of BAA in cytoplasm.

[8] = test system: human MD-MBA-231 breast cancer xenografts; experiment: Breast cancer MDA-MB-231 xenograft model; assay type: in vivo, athymic NCr nude mice; details: doses tested, FIG. 11
Experimental: as §7
Results are depicted in FIGS. 9 to 11.

[9] = Acute toxicity, tolerated dose in Balb/c mice; assay type: in vivo
Experimental: In this example, Ru^TEN3 was subjected to in vivo studies with Balb/c mice. Various treatment regimens were explored to define the optimally tolerated dose of Ru^TEN3 in vivo. […] The body weight changes were recorded.

[10] = Ru biodistribution in tumor-bearing mice; assay type: in vivo; details: FIG. 6
Excerpt: The Ru biodistribution in tumor-bearing mice treated with Ru^TEN3 was also investigated.

[11] = 24 h, MTT, read-out: IC50 (μM) MDA-MB-231 24 h
[12] = 72 h, MTT, read-out: IC50 (μM) MDA-MB-231 72 h

Compound	IC50 (MDA-MB-231 mammospheres [1])	IC50 (MCF-7; 72 h, MTT)	IC50 (MDA-MB-231; [11])	IC50 (MDA-MB-231; [12])	IC50 (MDA-MB-231 mammospheres [2]; 72 h)	Number of MCF-7 mammospheres (MCF-7 mammospheres)	Size (μm) of MCF-7 mammospheres (MCF-7 mammospheres)	Number of MDA-MB-231 mammospheres (MDA-MB-231 mammospheres [3])	Size (μm) of MDA-MB-231 mammospheres (MDA-MB-231 mammospheres [3])	decrease in number of MDA-MB-231 mammospheres (MDA-MB-231 mammospheres [3])	decrease in size of MDA-MB-231 mammospheres (MDA-MB-231 mammospheres [3])	Number of MDA-MB-231 secondary mammospheres [4]	Size (μm) of MDA-MB-231 secondary mammospheres [4]	propensity to form secondary mammospheres [4]	dispersion of cells into collagen after 4 hr (MDA-MB-231 mammospheres [5])	dispersion of cells into collagen after 28 hr / entire incubation period (MDA-MB-231 mammospheres [5])	body weight of LM3 tumor-bearing mice [6]	decrease in number of MCF-7 mammospheres (MCF-7 mammospheres; versus control)	body weight / toxicity in MDA-MB-231 tumor-bearing mice [8]	further results
CC(C)c1cc(C(C)C)cc(C(C)C)c1.COc1ccc([N+]2=Cc3ccc4ccccc4[n+]3[Ru-]2[Cl])cc1.[Cl-] [Ru^TEN1, [(η6-1,3,5-triisopropybenzene)RuCl(4-methoxy-N-(2-quinolinyl-methylene)-aniline)]Cl]	2.2 µM	0.68 ± 0.23 µM	1.2 ± 0.1 µM	0.28 ± 0.1 µM	1.4 ± 0.1 µM	238 ± 86	130 ± 15 μm	103 ± 41	93 ± 29 μm	20%	18%	102 ± 28	69 ± 3 μm	drastically reduced propensity to form secondary mammospheres	did not exhibit significant dispersion	only slight dispersion	neither Ru^TEN1 nor Ru^TEN3 had caused lost in body weight	–	–	–
CC[C@@H](C(=O)[C@@H](C)[C@@H](O)[C@H](C)[C@@H]1O[C@@H]([C@@H](CC)C(=O)O)CC[C@@H]1C)[C@H]1O[C@]2(C=C[C@@H](O)[C@]3(CC[C@@](C)([C@H]4CC[C@](O)(CC)[C@H](C)O4)O3)O2)[C@H](C)C[C@@H]1C [Saliomycin, salinomycin]	–	–	–	–	–	176 ± 73	117 ± 21 μm	87 ± 28	84 ± 25 μm	30%	30%	224 ± 74	82 ± 8 μm	only slight changes in size and number of mammospheres	did not exhibit significant dispersion	only slight dispersion	–	33%	low toxicity	IC50 (MCF-7; Homo sapiens, MCF7, 72 h): 0.51 ± 0.03 µM; IC50 (MDA-MB-231; Homo sapiens, MDA-MB-231, 24 h, read-out: IC50 (μM) MDA-MB-231 24 h): 31 ± 4 µM; IC50 (MDA-MB-231; Homo sapiens, MDA-MB-231, 72 h, read-out: IC50 (μM) MDA-MB-231 72 h): 0.56 ± 0.09 µM; IC50 (MDA-MB-231 mammospheres [2]; Homo sapiens, MDA-MB-231, 72 h): 8.3 ± 2.4 µM; decrease in size of MCF-7 mammospheres (MCF-7 mammospheres; versus control): 9%; reduction of ALDHbright sub-population [7]: 89%
[(η6-1,3,5-triisopropybenzene)RuCl(3-chloro-N-(2-quinolinylmethylene)-aniline)]Cl [Ru^TEN3]	2.7 µM	4.4 ± 0.4 µM	4.5 ± 0.8 µM	1.5 ± 0.3 µM	1.7 ± 0.3 µM	183 ± 32	122 ± 16 μm	50 ± 21	76 ± 19 μm	35%	60%	81 ± 9	67 ± 4 μm	drastically reduced propensity to form secondary mammospheres	–	did not migrate from the spheroids	neither Ru^TEN1 nor Ru^TEN3 had caused lost in body weight	30%	low toxicity	body weight and condition ([9]; 5 μmol/kg intraperitoneally twice a week for 33 days): did not demonstrate any weight loss; body weight and condition ([9]; 10 μmol/kg intraperitoneally twice a week for 33 days): did not demonstrate any weight loss; body weight and condition ([9]; 20 μmol/kg intraperitoneally twice a week): experienced severe pain, stopped moving, thus were euthanized; Ru accumulation in tissues [10]: highest Ru accumulation was observed in spleen and liver, followed by kidney and colon; Ru content in the brain [10]: very low
